Ends that are not written are not given here.
What was measured:
CXCR7 = molecular target: T1, CXCR7 (Mus musculus, UniProt P56485); test: Dose-dependent chemokine receptor occupation assay; format: binding, 4T1 murine cells; conditions: 4T1 cells, 0.1 nM to 1 mM, 1 h
T1 construct: endogenous in cells; host or cells: 4T1 murine breast cancer cells
Protocol: (§1) To validate the specificity of the BS (CXCR4-binding sequence) to CXCR4, a dose-dependent chemokine receptors occupation assay and a chemokine receptors competitive binding assay were conducted. […] Unoccupied chemokine receptors (CXCR4, CXCR7, CXCR2, CXCR5, and CCR4) on cell surface were stained with PE anti-human CD184/CXCR4 Antibody (1:300 dilution), anti-CXCR7-PE (1:300 dilution), anti-CXCR2-PE (1:300 dilution), anti-CXCR5-PE (1:300 dilution), and PE anti-human CD194/CCR4 Antibody (1:300 dilution) at 4 °C for 1 h, prior to flow cytometry analysis. In the chemokine receptors competitive binding assay, 4T1 cells (5 × 10^5 cells) were pre-blocked with PE anti-human CD184/CXCR4 Antibody (1:300 dilution), anti-CXCR7-PE (1:300 dilution), anti-CXCR2-PE (1:300 dilution), anti-CXCR5-PE (1:300 dilution), and PE anti-human CD194/CCR4 Antibody (1:300 dilution) at 4 °C for 1 h. Subsequently, these cells were treated with P-Cy5-BS-CM1-Cy5 (5 nM Cy5 equivalence) for 1 h. Following the treatments, cells were washed three times with PBS and subjected to flow cytometry analysis.

CXCR4 = molecular target: T2, CXCR4 (Mus musculus, UniProt P70658); test: Dose-dependent chemokine receptor occupation assay; format: binding, 4T1 murine cells; conditions: 4T1 cells, 0.1 nM to 1 mM, 25 °C, 1 h; unoccupied receptor stained with PE antibody
T2 construct: endogenous in cells; host or cells: 4T1 murine breast cancer cells
T2 sequence (P70658 whole entry): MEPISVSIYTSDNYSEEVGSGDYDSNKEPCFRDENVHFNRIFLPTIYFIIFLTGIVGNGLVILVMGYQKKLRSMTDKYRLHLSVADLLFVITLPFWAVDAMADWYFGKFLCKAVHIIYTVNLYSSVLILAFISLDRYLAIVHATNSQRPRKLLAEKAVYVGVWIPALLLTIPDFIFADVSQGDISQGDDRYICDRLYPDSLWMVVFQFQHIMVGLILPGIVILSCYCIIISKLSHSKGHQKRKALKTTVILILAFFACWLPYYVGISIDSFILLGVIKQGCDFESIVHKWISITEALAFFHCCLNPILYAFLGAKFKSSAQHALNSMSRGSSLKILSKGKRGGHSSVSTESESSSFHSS
Protocol: as §1

[1] = test system: orthotopic 4T1 breast tumors; test: Tumor-infiltrating CD8+ T lymphocytes, Tregs and MDSCs (flow cytometry); format: in vivo, female BALB/c mice; conditions: for CD3+CD8+ T cells (%) in tumor / CD11b+Gr1+ MDSCs (%) in tumor / Tregs (%) in CD4+ T cells: Supplementary Fig. 16b
Protocol: 4T1 cells (1 × 10^6 cells) were injected into the third mammary fat pad of female BALB/c mice (6–8-week). When tumor volumes reached nearly […] on day 7 after tumor inoculation, mice were randomly divided into 8 groups (n = 8 per group). For four groups without laser irradiation (−), mice were intravenously injected with the following samples: (1) saline on day 7, 14, 21, and 28, (2) P-PS on day 7, 14, 21, and 28, (3) P-BS-PS on day 7, 14, 21, and 28, or (4) P-BS-CM1 on day 7, 14, 21, and 28, followed by P-PS-CM2 on day 8, 15, 22, and 29 (5 mg/kg BS equivalence, CM1:CM2 1:1 mol%, 2.5 mg/kg PS equivalence), respectively. For four groups with laser irradiation (+), mice were treated with the same regimens and irradiated at 650 nm laser (580 mW/cm^2, 5 min) on day 9, 16, 23 and 30. Tumor volumes and mice survivals were recorded every other day. For the investigation of immune response and lung metastasis, 4T1 tumor-bearing female BALB/c mice (6–8-week, tumor volume~100 mm^3) were randomly divided into 8 groups (n = 5 per group) and given three rounds of above treatments. On day 28, lungs and tumors were harvested. lungs were fixed with Bouin’s solution. The pulmonary metastatic nodules were counted and analyzed by hematoxylin-eosin staining. Single-cell suspensions of tumor tissues were stained with anti-CD45-PerCP/Cy5.5 (1:300 dilution) and anti-calreticulin recombinant rabbit monoclonal antibody (1:500 dilution) at 4 °C for 1 h, and then stained with goat anti-rabbit IgG H&L Alexa Fluor® 647 (1:1000 dilution, 4 °C, 45 min), followed by flow cytometry analysis. ATP and HMGB1 concentrations in the supernatant of cell suspension were measured using a luciferase-based ATP assay kit and a mouse HMGB1 ELISA kit, respectively. Single-cell suspensions of tumors were stained with FITC anti-mouse CD3 antibody (1:300 dilution), PerCP/Cyanine5.5 anti-mouse CD4 antibody (1:300 dilution), anti-CD8α-APC (1:300 dilution), and anti-Foxp3-PE (1:300 dilution) for flow cytometry analysis of T cell subtypes (CD8^+ T cells, CD4^+ effector T cells, and Foxp3^+ regulatory T cells), and stained with PE anti-mouse/human CD11b antibody (1:300 dilution) and FITC anti-mouse Ly-6G/Ly-6C (Gr-1) antibody (1:300 dilution) for flow cytometry analysis of MDSCs (CD11b^+Gr1^+). Cytotoxic T cells in tumor tissues were investigated with immunofluorescent staining of IFN-γ and flow cytometry analysis using anti-IFN-γ-PE (1:300 dilution). For CD8-depletion assay, 4T1 tumor-bearing female BALB/c mice (6–8-week, tumor volume~100 mm^3) were randomly divided into 3 groups (n = 8 per group). Mice were intravenously given four doses of P-BS-CM1 on day 7, 14, 21 and 28, combined with P-PS-CM2 on day 8, 15, 22 and 29 (5 mg/kg BS equivalence, CM1:CM2 1:1 mol%, 2.5 mg/kg PS equivalence) in the presence or absence of InvivoMab anti-mouse CD8α (100 μg/mice). Mice were irradiated at 650 nm laser (580 mW/cm^2, 5 min) on day 9, 16, 23 and 30. Tumor volumes and mice survivals were recorded every other day.

[2] = test system: orthotopic 4T1 breast tumors; test: Spontaneous lung metastasis model: tumor volume and pulmonary metastatic nodules; format: in vivo, female BALB/c mice
Protocol: For the in vivo investigation of pulmonary metastasis, 4T1 cells (1 × 10^6 cells) were injected into the third mammary fat pad of female BALB/c mice (6–8 weeks). […] Tumor volumes were recorded every other day. On day 28, lungs were harvested and fixed with Bouin’s solutions. The pulmonary metastatic nodules were counted and analyzed by hematoxylin-eosin staining.

Nanothread-1 (P-BS-CM1) = molecular target: T3, Nanothread-1 (P-BS-CM1) (not fully specified; cysteines embedded within BS joined to maleimides of the HPMA copolymer backbone (thiol-ene click chemistry) | N-terminal cysteine joined to a maleimide of the HPMA copolymer …); test: circular dichroism; P-BS-CM1, P-CM2 and their mixtures (CM1:CM2 3:1, 1:1, 1:3), total polymer 10 mg/mL, 10 mM PBS pH 7.4, 25 °C, 10 min; conditions: both partners purified
T3 construct: source: synthetic peptides grafted on HPMA copolymer (P-Mal), dialysis and lyophilization; copies: 6 + 4
T3 chain 1: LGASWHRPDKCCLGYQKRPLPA
T3 chain 2: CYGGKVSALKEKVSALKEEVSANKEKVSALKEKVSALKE

[3] = molecular target: T4, Cy5-labeled P-BS-CM1 (P-BS-CM1-Cy5) (cysteines embedded within BS joined to maleimides of the HPMA copolymer backbone (thiol-ene click chemistry) | N-terminal cysteine joined to a maleimide of the HPMA copolymer backbone (thiol-ene …)); test: FRET or BRET; conditions: both partners purified
T4 construct: copies: 6 + 4
T4 chain 1: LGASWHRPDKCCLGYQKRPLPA
T4 chain 2: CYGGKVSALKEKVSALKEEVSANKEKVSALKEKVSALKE

T1 sequence (P56485 whole entry): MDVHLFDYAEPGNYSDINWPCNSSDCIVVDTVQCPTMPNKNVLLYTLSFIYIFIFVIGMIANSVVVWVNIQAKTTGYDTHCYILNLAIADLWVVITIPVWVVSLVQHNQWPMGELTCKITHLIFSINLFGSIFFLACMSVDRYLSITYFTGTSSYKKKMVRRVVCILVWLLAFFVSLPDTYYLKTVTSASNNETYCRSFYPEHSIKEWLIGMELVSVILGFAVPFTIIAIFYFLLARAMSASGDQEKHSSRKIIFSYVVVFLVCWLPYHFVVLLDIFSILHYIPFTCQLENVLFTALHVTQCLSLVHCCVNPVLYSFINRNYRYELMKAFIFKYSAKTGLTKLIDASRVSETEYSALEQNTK

Question: Which results are given for c1cc(CN2CCCNCCNCCCNCC2)ccc1CN1CCCNCCNCCCNCC1 [AMD3100, reference compound]?
Answer: CXCR7 occupation (CXCR7): low affinity; CXCR4 occupation (CXCR4): occupied CXCR4; CD3+CD8+ T cells (%) in tumor ([1]; 2 mg/kg, replicate 1 of 5): 0.1606%; CD11b+Gr1+ MDSCs (%) in tumor ([1]; 2 mg/kg, replicate 1 of 5): 22.12%; Tregs (%) in CD4+ T cells ([1]; 2 mg/kg, replicate 1 of 5): 12.05%; CD3+CD8+ T cells (%) in tumor ([1]; 2 mg/kg, replicate 2 of 5): 0.2296%; CD11b+Gr1+ MDSCs (%) in tumor ([1]; 2 mg/kg, replicate 2 of 5): 21.04%; Tregs (%) in CD4+ T cells ([1]; 2 mg/kg, replicate 2 of 5): 13.02%; CD3+CD8+ T cells (%) in tumor ([1]; 2 mg/kg, replicate 3 of 5): 0.134%; CD11b+Gr1+ MDSCs (%) in tumor ([1]; 2 mg/kg, replicate 3 of 5): 19.16%; Tregs (%) in CD4+ T cells ([1]; 2 mg/kg, replicate 3 of 5): 16.28%; CD3+CD8+ T cells (%) in tumor ([1]; 2 mg/kg, replicate 4 of 5): 0.1643%; CD11b+Gr1+ MDSCs (%) in tumor ([1]; 2 mg/kg, replicate 4 of 5): 20.68%; Tregs (%) in CD4+ T cells ([1]; 2 mg/kg, replicate 4 of 5): 11.04%; CD3+CD8+ T cells (%) in tumor ([1]; 2 mg/kg, replicate 5 of 5): 0.1515%; CD11b+Gr1+ MDSCs (%) in tumor ([1]; 2 mg/kg, replicate 5 of 5): 18.7%; Tregs (%) in CD4+ T cells ([1]; 2 mg/kg, replicate 5 of 5): 18.84%; CD3+CD8+ T cells (%) in tumor ([1]; 5 mg/kg, replicate 1 of 5): 0.2311%; CD11b+Gr1+ MDSCs (%) in tumor ([1]; 5 mg/kg, replicate 1 of 5): 16.63%; Tregs (%) in CD4+ T cells ([1]; 5 mg/kg, replicate 1 of 5): 7.21%; CD3+CD8+ T cells (%) in tumor ([1]; 5 mg/kg, replicate 2 of 5): 0.1528%; CD11b+Gr1+ MDSCs (%) in tumor ([1]; 5 mg/kg, replicate 2 of 5): 14.04%; Tregs (%) in CD4+ T cells ([1]; 5 mg/kg, replicate 2 of 5): 6.69%; CD3+CD8+ T cells (%) in tumor ([1]; 5 mg/kg, replicate 3 of 5): 0.1403%; CD11b+Gr1+ MDSCs (%) in tumor ([1]; 5 mg/kg, replicate 3 of 5): 15.32%; Tregs (%) in CD4+ T cells ([1]; 5 mg/kg, replicate 3 of 5): 12.48%; CD3+CD8+ T cells (%) in tumor ([1]; 5 mg/kg, replicate 4 of 5): 0.2195%; CD11b+Gr1+ MDSCs (%) in tumor ([1]; 5 mg/kg, replicate 4 of 5): 14.1%; Tregs (%) in CD4+ T cells ([1]; 5 mg/kg, replicate 4 of 5): 10.38%; CD3+CD8+ T cells (%) in tumor ([1]; 5 mg/kg, replicate 5 of 5): 0.1508%; CD11b+Gr1+ MDSCs (%) in tumor ([1]; 5 mg/kg, replicate 5 of 5): 16%; Tregs (%) in CD4+ T cells ([1]; 5 mg/kg, replicate 5 of 5): 8.46%; tumor-infiltrating CD8+ T cells ([1]; day 28, AMD3100 i.p. daily 2 or 5 mg/kg, nanothreads weekly i.v.): remained low; Number of metastatic nodules ([2]; 2mg/kg, replicate 1): 31; Number of metastatic nodules ([2]; 2mg/kg, replicate 2): 32; Number of metastatic nodules ([2]; 2mg/kg, replicate 3): 20; Number of metastatic nodules ([2]; 2mg/kg, replicate 4): 20; Number of metastatic nodules ([2]; 2mg/kg, replicate 5): 18; Number of metastatic nodules ([2]; 5mg/kg, replicate 1): 12; Number of metastatic nodules ([2]; 5mg/kg, replicate 2): 14; Number of metastatic nodules ([2]; 5mg/kg, replicate 3): 15; Number of metastatic nodules ([2]; 5mg/kg, replicate 4): 9; Number of metastatic nodules ([2]; 5mg/kg, replicate 5): 12; primary tumor growth ([2]; nanothreads weekly i.v. x3, AMD3100 i.p. daily 2 or 5 mg/kg day 7-27): dose-dependent anti-tumor activity

B1: HPMA copolymer-CM2 conjugate (P-CM2) (other)
peptide: CYGGEVSALEKEVSALEKKNSALEKEVSALEKEVSALEK
modifications: not fully specified (residue 1)
notes: source: synthetic peptide grafted on HPMA copolymer (P-Mal), dialysis and lyophilization; copies: 12
Question: Does B1 bind (Nanothread-1 (P-BS-CM1))?
Answer: binds

Question: Does C(HPMA copolymer)YGGEVSALEKEVSALEKKNSALEKEVSALEKEVSALEK (other, also: Cy3 label on conjugate, position not given here, copies: 12) [Cy3-labeled P-CM2 (P-CM2-Cy3)] bind [3]?
Answer: binds

Reference: PMC10980815, “Cell surface patching via CXCR4-targeted nanothreads for cancer metastasis inhibition” (Nature Communications, 2024)
